Earlier results, collected in patent US20160317610A1, “COMPOSITIONS AND METHODS FOR TREATING OVARIAN CANCER INCLUDING PREVENTING THE […]” (University of Southern California, priority 2013, published 2016).

Test system: advanced OC

## CC(C)[C@H]1C(=O)N[C@@H](CCCN=C(N)N)C(=O)NCC(=O)N[C@@H](CC(=O)O)C(=O)N[C@H](Cc2ccccc2)C(=O)N1C [Cilengitide, cyclo(L-Arg-Gly-L-Asp-D-Phe-N-methyl-L-Val)]
  clinical efficacy: failed to show clinical efficacy
